{
  "source": "patent US9463174B2",
  "about": "“Pharmaceutical composition for the treatment of type-1 diabetes” (priority 2008, dated 2016)",
  "key": {"NOD mice": {"test_system": "NOD mice", "assay": "Prevention of diabetes in non-obese diabetic (NOD) mice, GABA daily injections from age of 5 week", "type": "in vivo", "procedure": "To examine the role of GABA in the development of diabetes in NOD mice, GABA daily injections were started at age of 5 week and PBS injections as control. Islet immunohistochemistry was performed at their age of 13 wks before the onset of obvious diabetic hyperglucemia. […] It is noted that beyond this age, the blood glucose levels of saline-treated NOD mice were out of the scale of the measurement (red arrows FIG. 6F). These non-treated NOD mice also developed impaired glucose tolerance (FIG. 6F, 6G), associated with reduced circulating C-peptide (FIG. 6H) and elevated circulating glucagon levels (FIG. 6I).\n(§1) The techniques used for the in vivo and in vitro studies in this embodiment of the disclosure are also described. CD1 mice (Charles River Laboratories, St Constant, Canada), NOD mice and transgenic TCR NOD mice (Jackson Laboratory, USA) were housed under a controlled temperature and a 12-h light/12-h dark cycle in the St. Michael's Hospital Animal facility with free access to food (normal rodent chow) and water, except where noted. All procedures were conducted according to protocols and guidelines approved by the Canadian Council of Animal Care and the St. Michael's Hospital Animal Care committee. Mice were treated with GABA by daily intraperitoneal (i.p.) injection of 20·g GABA per mouse to reach ˜200 μM circulation concentration and PBS as control. The daily treatment is continuously conducted during 60-day experimental period. One wk after the GABA and PBS treatment, diabetes was induced in both groups by i.p.-injection of low-dose streptozotocin (STZ, Sigma Chemical Co., St. Louis, Mo. 40 mg/kg body weight) for 5 consecutive days. The development of hyperglycemia was monitored by measuring blood glucose from the tail vein every third day following STZ injections using an Ascensia ELITE® XL glucose meter. For some studies, overtly diabetic mice induced by STZ and without GABA treatment were divided into two groups: one group started receiving daily i.p. injection of 20·g GABA whereas other group received only PBS. The treatment was continued for 75 days. The handling of the NOD mice were similar to those CD1 mice except the STZ injection. The NOD mice have a susceptibility to spontaneous development of autoimmune T1D. The TCR transgenic 8.3-NOD mice have a markedly accelerated disease (J. Vergdaguer et al, 1997 J Exp Med. 186(10):1663-76).\n(§2) Groups of mice were subject to a glucose tolerance test (IPGTT) before treatment (day 0), one, three, and five weeks after administration and the day prior termination. For IPGTT, mice were fasted overnight for 15 h, and were given 1.5 g glucose/kg body weight via i.p.-injection. Blood was drawn from the tail vein and blood glucose was measured at 0, 10, 20, 30, 60, 90, and 120 min after glucose administration.\nBlood samples (200 μL) were collected from the saphenous vein at time as indicated and at the termination of experiments via cardiac puncture (1 mL) for measurement of insulin, glucagon, and cytokine profiles. Serum was collected by centrifugation and stored at −80° C. until use. Insulin and glucagon concentration in serum samples were determined using insulin ELISA kit (Crystal Chem., Chicago, Ill., USA) and glucagon RIA kit (Linco Research, St. Louis, Miss., USA). Circulating GLP-1 levels were determined using GLP-1 RIA kit (Linco Research, St. Louis, Miss., USA). Cytokine concentration in the serum samples was determined using kit Multiplex Bead-based Cytokine assay (BioRed, Canada).\nFollowing dewaxing, […] as described previously (Wang Q, Brubaker P L 2002 Diabetologia 45:1263-1273), endogenous peroxidase activity was quenched by incubating sections in 0.3% H2O2 in water for 30 min and antigen retrieval was performed by heating slides in 10 mM sodium citrate buffer, pH 6.0, at ˜70° C. for 30 min. […]"}, "MLDS CD1 mice": {"test_system": "MLDS CD1 mice", "assay": "Prevention of multiple-low-dose-streptozotocin (MLDS) induced diabetes by daily GABA injection", "type": "in vivo", "procedure": "As shown in the FIG. 1, the diabetes induction by multiple-low-dose-streptozotocin (i.p. 40 mg/kg for four consecutive days, MLDS) in mice can be prevented by daily injection of GABA. The MLSD murine model is commonly used for study of T1D (Rossini A A et al, 1978 Nature. 276(5684):182-4; Harlan D M et al, 1995 Diabetes 44(7):816-23) in which the beta-cells are destroyed by the toxic streptozotocin that leads to insulin insufficiency. To certain extent, T-cell mediated beta-cell inflammation (insulitis) is found in the multiple-low-dose streptozotocin induced diabetic hyperglycemia. However, insulitis may not be necessary occurred in the hyperglycemic mice induced by one injection of streptozotocin of high dose (i.e. 200-250 mg/kg), as in the latter case the beta-cell are rapidly destroyed. […] GABA has no effect on the glucose tolerance in normal mice as determined by intraperitoneal glucose tolerance test (IPGTT) 7 days before STZ injection.\nas §1, §2\nInsulin tolerance test (ITT) was performed in non-fasting mice by i.p.-injection of 2.5 unit insulin/kg body weight. Blood was drawn from the tail vein and blood glucose levels were measured at 0, 20, 30, 40, 60, 90, and 120 min after insulin administration. Glucagon tolerance test (GTT) was performed in 15 hrs fasted mice: glucagon were i.p.-injected (50 ng/g body weight) and blood was drawn from the tail vein and blood glucose levels were measured at 0, 10, 20, 30, 60, 90, and 120 min after glucagon administration.\nMice were housed in metabolic cages prior to initiation of GABA and PBS treatment and before termination of experiments. Food intake, water consumption and urine output were measured. To determine the fat distribution, three intra-abdominal fat pads retroperitoneal, mesenteric and epididymal were dissected and weighed. […]"}, "INS-1 cells": {"test_system": "INS-1 cells", "assay": "Insulin secretion from INS-1 cells", "type": "cell-based", "details": "dose dependent"}, "[1]": {"details": "age of 13 wks, GABA-treated NOD mice"}, "[2]": {"details": "GABA treated vs non-treated MLDS-mice"}, "[3]": {"details": "GABA treated vs untreated MLDS-mice"}, "[4]": {"details": "GABA vs non-GABA treated MLDS-mice"}, "[5]": {"details": "pancreatic immunohistochemistry, vs non-treated MLDS-mice"}},
  "note": "Entries after “also recorded” stand apart in the source; their conditions may differ.",
  "data": [
    {"smiles": "NCCCC(=O)O", "note": "[GABA, gamma-aminobutyric acid]", "values": [
      {"measurement": "beta-cell apoptosis (anti-caspase-3 islet histochemistry)", "setting": "NOD mice; GABA-treated NOD mice", "result": "reduced"},
      {"measurement": "circulating C-peptide", "setting": "NOD mice; GABA-treated NOD mice", "result": "close to those measured at their earlier age; also recorded: significantly increased circulating C-peptide"},
      {"measurement": "circulating glucagon levels", "setting": "NOD mice; GABA-treated NOD mice", "result": "close to those measured at their earlier age; also recorded: reduced glucagon levels"},
      {"measurement": "glucose tolerance", "setting": "NOD mice; GABA-treated NOD mice", "result": "close to normal glucose tolerance"},
      {"measurement": "ratio of insulin to glucagon", "setting": "NOD mice; GABA-treated NOD mice", "result": "significantly elevated the ratio of insulin to glucagon"},
      {"measurement": "onset of diabetes / development of severe diabetic hyperglycemia", "setting": "NOD mice; NOD mice", "result": "significantly prevented development of severe diabetic hyperglycemia; also recorded: prevents onset of diabetes"},
      {"measurement": "severe insulitis", "setting": "NOD mice; age of 13 wks", "result": "no severe insulitis was seen"},
      {"measurement": "islets areas occupied by lymphocytes in islets with relatively severe insulitis", "setting": "NOD mice; [1]", "result": "20-30%"},
      {"measurement": "islets with normal morphology without lymphocyte infiltration", "setting": "NOD mice; [1]", "result": "> 70", "unit": "%"},
      {"measurement": "islets with relatively severe insulitis", "setting": "NOD mice; [1]", "result": "about 15%"},
      {"measurement": "blood glucose levels", "setting": "NOD mice; at 18 wks of age, vs saline-treated NOD mice", "result": "kept lower blood glucose levels"},
      {"measurement": "glucose tolerance in normal mice (IPGTT)", "setting": "MLDS CD1 mice; 7 days before STZ injection", "result": "no effect"},
      {"measurement": "glucose tolerance (IPGTT)", "setting": "MLDS CD1 mice; [2]", "result": "significant improved glucose tolerance; also recorded: maintained close to normal glucose tolerance"},
      {"measurement": "glucose tolerance, area under curve", "setting": "MLDS CD1 mice; [2]", "result": "significantly improved"},
      {"measurement": "circulating insulin", "setting": "MLDS CD1 mice; [3]", "result": "significantly elevated circulating insulin levels"},
      {"measurement": "ratio of insulin to glucagon levels", "setting": "MLDS CD1 mice; [3]", "result": "increased ratio of insulin to glucagon levels; also recorded: significantly increased insulin/glucagon ratio"},
      {"measurement": "serum glucagon levels", "setting": "MLDS CD1 mice; [3]", "result": "reduced serum glucagon levels; also recorded: significantly reduced glucagon levels"},
      {"measurement": "circulating IL-12", "setting": "MLDS CD1 mice; [4]", "result": "significantly reduced"},
      {"measurement": "circulating INF-gamma", "setting": "MLDS CD1 mice; [4]", "result": "significantly reduced"},
      {"measurement": "circulating level of TNF-alpha", "setting": "MLDS CD1 mice; [4]", "result": "significantly decreased"},
      {"measurement": "circulating level of pro-inflammatory IL-1 (IL-1-beta)", "setting": "MLDS CD1 mice; [4]", "result": "significantly decreased"},
      {"measurement": "serum level of IL-6", "setting": "MLDS CD1 mice; [4]", "result": "not different"},
      {"measurement": "serum level of Th2 cytokine IL-10", "setting": "MLDS CD1 mice; [4]", "result": "not different"},
      {"measurement": "diabetic symptoms such as polydipsia and polyuria", "setting": "MLDS CD1 mice; MLDS mice, metabolic studies", "result": "significantly improved diabetic symptoms"},
      {"measurement": "diabetic sickness", "setting": "MLDS CD1 mice; MLDS mice, throughout the feeding course", "result": "not found in any mouse"},
      {"measurement": "glucagon tolerance (glucagon tolerance test)", "setting": "MLDS CD1 mice; MLDS-mice", "result": "significantly improved glucagon tolerance; also recorded: largely improved"},
      {"measurement": "improvement of glucagon intolerance, area under curve", "setting": "MLDS CD1 mice; MLDS-mice", "result": "statistically significant"},
      {"measurement": "insulin sensitivity (insulin tolerance test)", "setting": "MLDS CD1 mice; MLDS-mice", "result": "does not alter the insulin sensitivity; also recorded: did not alter the insulin sensitivity"},
      {"measurement": "insulitis scored by HE staining for infiltrated lymphocytes in the islets", "setting": "MLDS CD1 mice; MLDS-mice", "result": "significant reduction of insulitis"},
      {"measurement": "number of GABA treated STZ mice that developed overt hyperglycemia", "setting": "MLDS CD1 mice; after 7-day MLDS injection, control mice 8 of total 8", "result": "one"},
      {"measurement": "development of diabetic hyperglycemia (blood glucose)", "setting": "MLDS CD1 mice; daily i.p. GABA 20·g/mouse, MLDS CD1 mice, vs untreated", "result": "prevents development of diabetic hyperglycemia; also recorded: remarkably prevented development of hyperglycemia"},
      {"measurement": "alpha-cell mass", "setting": "MLDS CD1 mice; [5]", "result": "significantly reduced alpha-cell mass"},
      {"measurement": "beta-cell mass", "setting": "MLDS CD1 mice; [5]", "result": "significantly reserved the beta-cell mass"},
      {"measurement": "insulin secretion from INS-1 cells", "setting": "INS-1 cells", "result": "stimulated insulin secretion; also recorded: dose-dependently increases insulin secretion"}
    ]}
  ]
}
